28 compounds from patent US10689381B2 (priority 2017, dated 2020) can be followed below.

pIC50: −log10 of the molar value. Read-outs that look alike come from different tables or passages of the source.

One experiment has as its system L1210. Kind of experiment: cells. In kind it is cell-based, mouse. Here is the method:
(§1) A population of cells (>1×10^6 cells/mL as determined with a hemocytometer) was diluted with Dulbecco's Modified Eagle Medium (DMEM, Gibco) containing 10% fetal bovine serum (FBS, Gibco) to give a final concentration of 30,000 cells/mL. To each well of a 96-well plate (Corning® Costar®) was added 100 μL of the cell media solution with a multichannel pipet.
(§2) The test compounds were then added to the plate as follows: test compounds were diluted in DMSO to a concentration of 1 mM. 10-Fold serial dilutions in DMSO were next performed on a separate 96-well plate. Fresh culture media (100 μL) was added to each well of cells resulting in 200 μL of medium per well followed by 2 μL of each test agent. Compounds were tested in duplicate (n=2-8 times) at six concentrations between 0-1000 nM or 0-10000 nM. Following the addition of compound, cultures were incubated for an additional 72 hours.
(§3) The plates were incubated at 37° C. for 5 minutes (L1210) or 15 min (HCT116 and HCT116/VM46).

A further experiment concerns HCT116. The experiment in a line: cells. In kind it is cell-based, human. The following applies: for pIC50: read-out: IC50 HCT116; for potency relative to vinblastine (more potent): vinblastine-sensitive cell lines. Here is the method: as §1, §2, §3

For orientation: pIC50 means the negative decadic logarithm of the IC50, by convention in mol/L. On to `CC[C@]1(NC(=O)c2ccoc2)C[C@H]2CN(CCc3c([nH]c4ccccc34)[C@@](C(=O)OC)(c3cc4c(cc3OC)N(C)[C@H]3[C@@](O)(C(=O)OC)[C@H](OC(C)=O)[C@]5(CC)C=CCN6CC[C@]43[C@@H]65)C2)C1` [Compound 133], for which the pIC50 in the experiment on L1210 (Table 5) was 9.15; in the experiment on HCT116 (Table 5), 9.22. In the experiment with HCT116, the “activity relative to 20′ benzamide Compound 24 (better)” value is listed as “roughly 2 fold”. Moreover, in the experiment on HCT116, the “potency relative to vinblastine (more potent)” value (“potency relative to vinblastine” for short) amounted to 10 fold.

With `CC[C@]1(NS(=O)(=O)c2ccc3ccccc3c2)C[C@H]2CN(CCc3c([nH]c4ccccc34)[C@@](C(=O)OC)(c3cc4c(cc3OC)N(C)[C@H]3[C@@](O)(C(=O)OC)[C@H](OC(C)=O)[C@]5(CC)C=CCN6CC[C@]43[C@@H]65)C2)C1` [Compound 185], the pIC50 in the experiment on L1210 (Table 7, C20′ sulfonamides) was 7.30; in the experiment on HCT116 (Table 7, C20′ sulfonamides), 7.22.

With `CC[C@]1(NC(=O)c2ccnnc2)C[C@H]2CN(CCc3c([nH]c4ccccc34)[C@@](C(=O)OC)(c3cc4c(cc3OC)N(C)[C@H]3[C@@](O)(C(=O)OC)[C@H](OC(C)=O)[C@]5(CC)C=CCN6CC[C@]43[C@@H]65)C2)C1` [Compound 132], the pIC50 with L1210 (Table 5) is 7.52; with HCT116 (Table 5), 8.05.

Regarding `CCC1(NC(=O)c2ccc(C)cc2)CC2CN(CCc3c([nH]c4ccccc34)C(C(=O)OC)(c3cc4c(cc3OC)N(C)C3C(O)(C(=O)OC)C(OC(C)=O)C5(CC)C=CCN6CCC43C65)C2)C1` (stereo not shown) [Compound 25], the figures for the pIC50 with L1210 (Table 2) and in the experiment on HCT116 (Table 2) were 9.30 and 9.35, respectively. For the same compound, the “potency relative to vinblastine” value in the experiment on HCT116 came to 10 fold.

With `CCC1(NC(=O)c2ccc(OC(C)C)cc2)CC2CN(CCc3c([nH]c4ccccc34)C(C(=O)OC)(c3cc4c(cc3OC)N(C)C3C(O)(C(=O)OC)C(OC(C)=O)C5(CC)C=CCN6CCC43C65)C2)C1` (stereo not shown) [Compound 74], the pIC50 with L1210 (Table 2) was 9.15; in the experiment on HCT116 (Table 2), 9.10. In the experiment on HCT116, the “potency relative to vinblastine” value is listed as 10 fold.

Regarding `CCC1(NC(=O)C2CCN(C)CC2)CC2CN(CCc3c([nH]c4ccccc34)C(C(=O)OC)(c3cc4c(cc3OC)N(C)C3C(O)(C(=O)OC)C(OC(C)=O)C5(CC)C=CCN6CCC43C65)C2)C1` (stereo not shown) [Compound 148], the pIC50 was 5.28 in the experiment on L1210 (Table 5) and 5.36 in the experiment on HCT116 (Table 5).

With `CCC1(NS(=O)(=O)c2ccccc2[N+](=O)[O-])CC2CN(CCc3c([nH]c4ccccc34)C(C(=O)OC)(c3cc4c(cc3OC)N(C)C3C(O)(C(=O)OC)C(OC(C)=O)C5(CC)C=CCN6CCC43C65)C2)C1` (stereo not shown) [Compound 183], the pIC50 was 6.44 in the experiment with L1210 (Table 7, C20′ sulfonamides) and 6.38 in the experiment with HCT116 (Table 7, C20′ sulfonamides).

For the compound `CC[C@]1(NC(=O)c2ccc(NC(=O)OC(C)(C)C)c(C)c2)C[C@H]2CN(CCc3c([nH]c4ccccc34)[C@@](C(=O)OC)(c3cc4c(cc3OC)N(C)[C@H]3[C@@](O)(C(=O)OC)[C@H](OC(C)=O)[C@]5(CC)C=CCN6CC[C@]43[C@@H]65)C2)C1` [Compound 105], the pIC50 was 8.25 in the experiment with L1210 (Table 2) and 8.24 in the experiment with HCT116 (Table 2).

As for `CCC1(NC(=O)c2ccc(-c3ccccc3)cc2)CC2CN(CCc3c([nH]c4ccccc34)C(C(=O)OC)(c3cc4c(cc3OC)N(C)C3C(O)(C(=O)OC)C(OC(C)=O)C5(CC)C=CCN6CCC43C65)C2)C1` (stereo not shown) [Compound 42], the pIC50 in the experiment on L1210 (Table 2) is 8.26; in the experiment on HCT116 (Table 2) it was 8.27.

As to `CCC1(NC(=O)C2CCc3ccccc3C2)CC2CN(CCc3c([nH]c4ccccc34)C(C(=O)OC)(c3cc4c(cc3OC)N(C)C3C(O)(C(=O)OC)C(OC(C)=O)C5(CC)C=CCN6CCC43C65)C2)C1` (mixture of isomers) [Compound 122], the pIC50 in the experiment on L1210 (Table 4) is 6.38; with HCT116 (Table 4), 6.24.

As to `CCC1(NC(=O)c2ccccc2C(F)(F)F)CC2CN(CCc3c([nH]c4ccccc34)C(C(=O)OC)(c3cc4c(cc3OC)N(C)C3C(O)(C(=O)OC)C(OC(C)=O)C5(CC)C=CCN6CCC43C65)C2)C1` (stereo not shown) [Compound 41], the results for the pIC50 with L1210 (Table 2) and with HCT116 (Table 2) were 7.35 and 7.22, respectively.

`CC[C@]1(NC(=O)/C=C/c2ccsc2)C[C@H]2CN(CCc3c([nH]c4ccccc34)[C@@](C(=O)OC)(c3cc4c(cc3OC)N(C)[C@H]3[C@@](O)(C(=O)OC)[C@H](OC(C)=O)[C@]5(CC)C=CCN6CC[C@]43[C@@H]65)C2)C1` [Compound 114]: the pIC50 was 9.30 with L1210 (Table 3) and 9.22 in the experiment on HCT116 (Table 3).

In the case of `CCC1(NC(=O)c2coc3ccccc23)CC2CN(CCc3c([nH]c4ccccc34)C(C(=O)OC)(c3cc4c(cc3OC)N(C)C3C(O)(C(=O)OC)C(OC(C)=O)C5(CC)C=CCN6CCC43C65)C2)C1` (stereo not shown) [Compound 159], the pIC50 in the experiment on L1210 (Table 6) was 8.40; in the experiment with HCT116 (Table 6), 8.34.

Turning to `CCC1(NC(=O)c2ccc(Br)c(Br)c2)CC2CN(CCc3c([nH]c4ccccc34)C(C(=O)OC)(c3cc4c(cc3OC)N(C)C3C(O)(C(=O)OC)C(OC(C)=O)C5(CC)C=CCN6CCC43C65)C2)C1` (stereo not shown) [Compound 53], the pIC50 is 7.22 with L1210 (Table 2) and 7.40 in the experiment with HCT116 (Table 2).

For `CCC1(NC(=O)c2cccnc2)CC2CN(CCc3c([nH]c4ccccc34)C(C(=O)OC)(c3cc4c(cc3OC)N(C)C3C(O)(C(=O)OC)C(OC(C)=O)C5(CC)C=CCN6CCC43C65)C2)C1` (stereo not shown) [Compound 129], the negative logarithm of the IC50 (pIC50) in the experiment on L1210 (Table 5) was 9.15; in the experiment on HCT116 (Table 5), 9.22.

With `CC[C@]1(NC(=O)c2ccc3ncoc3c2)C[C@H]2CN(CCc3c([nH]c4ccccc34)[C@@](C(=O)OC)(c3cc4c(cc3OC)N(C)[C@H]3[C@@](O)(C(=O)OC)[C@H](OC(C)=O)[C@]5(CC)C=CCN6CC[C@]43[C@@H]65)C2)C1` [Compound 167], the pIC50 in the experiment on L1210 (Table 6) and with HCT116 (Table 6) was 9.22 throughout.

For `CCC1(NC(=O)c2ccon2)CC2CN(CCc3c([nH]c4ccccc34)C(C(=O)OC)(c3cc4c(cc3OC)N(C)C3C(O)(C(=O)OC)C(OC(C)=O)C5(CC)C=CCN6CCC43C65)C2)C1` (stereo not shown) [Compound 143], the pIC50 was 8.35 in the experiment on L1210 (Table 5) and 8.15 in the experiment on HCT116 (Table 5).

Take `CCC1(NC(=O)c2ccc3c(c2)ncn3C)CC2CN(CCc3c([nH]c4ccccc34)C(C(=O)OC)(c3cc4c(cc3OC)N(C)C3C(O)(C(=O)OC)C(OC(C)=O)C5(CC)C=CCN6CCC43C65)C2)C1` (stereo not shown) [Compound 166]: the pIC50 is 9.15 in the experiment with L1210 (Table 6) and 9.22 with HCT116 (Table 6).

For the compound `CC[C@]1(NC(=O)c2ccc(OC)c(F)c2)C[C@H]2CN(CCc3c([nH]c4ccccc34)[C@@](C(=O)OC)(c3cc4c(cc3OC)N(C)[C@H]3[C@@](O)(C(=O)OC)[C@H](OC(C)=O)[C@]5(CC)C=CCN6CC[C@]43[C@@H]65)C2)C1` [Compound 90], the pIC50 in the experiment on L1210 (Table 2) and with HCT116 (Table 2) was 9.22 each time.

As to `CCC1(NC(=O)c2ccc3c(c2)CCO3)CC2CN(CCc3c([nH]c4ccccc34)C(C(=O)OC)(c3cc4c(cc3OC)N(C)C3C(O)(C(=O)OC)C(OC(C)=O)C5(CC)C=CCN6CCC43C65)C2)C1` (stereo not shown) [Compound 161], the values for the pIC50 in the experiment on L1210 (Table 6) and with HCT116 (Table 6) were 9.52 and 9.60, respectively.

Turning to `CCc1ccc(C(=O)NC2(CC)CC3CN(CCc4c([nH]c5ccccc45)C(C(=O)OC)(c4cc5c(cc4OC)N(C)C4C(O)(C(=O)OC)C(OC(C)=O)C6(CC)C=CCN7CCC54C76)C3)C2)cc1` (stereo not shown) [Compound 30], the pIC50 was 9.19 in the experiment with L1210 (Table 2) and 9.15 with HCT116 (Table 2). The “potency relative to vinblastine” value in the experiment on HCT116 worked out at 10 fold.

Consider `CCC1(NC(=O)c2ccc3c(c2)OCCN3C)CC2CN(CCc3c([nH]c4ccccc34)C(C(=O)OC)(c3cc4c(cc3OC)N(C)C3C(O)(C(=O)OC)C(OC(C)=O)C5(CC)C=CCN6CCC43C65)C2)C1` (stereo not shown) [Compound 176], for which the pIC50 in the experiment with L1210 (Table 6) and with HCT116 (Table 6) was 9.52 throughout.

As for `CCC1(NC(=O)c2ccc(SC(C)C)cc2)CC2CN(CCc3c([nH]c4ccccc34)C(C(=O)OC)(c3cc4c(cc3OC)N(C)C3C(O)(C(=O)OC)C(OC(C)=O)C5(CC)C=CCN6CCC43C65)C2)C1` (stereo not shown) [Compound 87], the pIC50 in the experiment on L1210 (Table 2) is 8.37; in the experiment with HCT116 (Table 2) it was 8.34.

Turning to `CC[C@]1(NC(=O)C(C)(C)C)C[C@H]2CN(CCc3c([nH]c4ccccc34)[C@@](C(=O)OC)(c3cc4c(cc3OC)N(C)[C@H]3[C@@](O)(C(=O)OC)[C@H](OC(C)=O)[C@]5(CC)C=CCN6CC[C@]43[C@@H]65)C2)C1` [Compound 14], the pIC50 was 5.55 with L1210 (Table 1) and 5.44 in the experiment on HCT116 (Table 1).

For `CCC1(NC(=O)c2ccc(C#N)c(C)c2)CC2CN(CCc3c([nH]c4ccccc34)C(C(=O)OC)(c3cc4c(cc3OC)N(C)C3C(O)(C(=O)OC)C(OC(C)=O)C5(CC)C=CCN6CCC43C65)C2)C1` (stereo not shown) [Compound 55], the results for the negative-log IC50 (pIC50) in the experiment with L1210 (Table 2) and with HCT116 (Table 2) were 8.32 and 8.21, respectively.

Regarding `CCC1(NC(=O)c2ccc3c(c2)CCCCC3)CC2CN(CCc3c([nH]c4ccccc34)C(C(=O)OC)(c3cc4c(cc3OC)N(C)C3C(O)(C(=O)OC)C(OC(C)=O)C5(CC)C=CCN6CCC43C65)C2)C1` (stereo not shown) [Compound 126], the pIC50 is 8.21 in the experiment with L1210 (Table 4) and 8.32 with HCT116 (Table 4).

With `CC[C@]1(NC(=O)c2ccc(Br)cc2)C[C@H]2CN(CCc3c([nH]c4ccccc34)[C@@](C(=O)OC)(c3cc4c(cc3OC)N(C)[C@H]3[C@@](O)(C(=O)OC)[C@H](OC(C)=O)[C@]5(CC)C=CCN6CC[C@]43[C@@H]65)C2)C1` [Compound 51], the pIC50 is 8.57 with L1210 (Table 2) and 8.85 in the experiment with HCT116 (Table 2).

In the case of `CCC1(NC(=O)c2ccc3cnccc3c2)CC2CN(CCc3c([nH]c4ccccc34)C(C(=O)OC)(c3cc4c(cc3OC)N(C)C3C(O)(C(=O)OC)C(OC(C)=O)C5(CC)C=CCN6CCC43C65)C2)C1` (stereo not shown) [Compound 154], the pIC50 in the experiment with L1210 (Table 6) and with HCT116 (Table 6) was 9.22 in each case.
